How the values were obtained:
Type in all cases: cell-based, human
[1] = system: SV40-transformed OV-CA4 ovarian epithelial cells; assay: MMC/DEB-induced radial formation, SV40-transformed OV-CA4 cells with and without FANCD2 complementation (FIG. 4B); settings: 40 ng/ml MMC or 200 ng/mL DEB, 48 hours, 50 metaphases
Procedure: (§1) The ovarian cells were scraped from the ovarian surface and enzymatically disaggregated with Collagenase I (GIBCO-Invitrogen, Grand Island, N.Y.) for 4 hours. The cells were washed in RPMI 1640 medium (GIBCO-Invitrogen) and plated in 25 cm^2 flasks coated with collagen in RPMI 1640 supplemented with 20% FCS (Hyclone, Logan, Utah), 10 μg/ml insulin (Sigma, St. Louis, Mo.) and 10 ng/ml EGF (R&D Systems, Minneapolis, Minn.). Studies were performed on primary cells and immortalized cells. Ovarian cells were immortalized by transduction with a retrovirus expressing SV40 large T-antigen obtained from cell line Ψ-2/U195 (Saito et al., Mutat. Res. 294:255-62, 1993; Williams et al., Mol. Cell Bio. 8:3864-71, 1988). SV40-transformed ovarian epithelial cells were transduced with pMMP retroviral vectors containing full-length FANCD2 cDNA produced from the AM12/RVD2 cell line (Naf et al., Mol. Cell Biol. 18:5952-60, 1998; Kuang et al., Blood 96:1625-32, 2000).
(§2) These cultures were then harvested after a 2 hour exposure to 0.25 μg/ml Colcemid (Sigma). Following a 10 minute treatment with hypotonic solution (0.075 M KCl, 5% fetal calf serum) the cells were fixed with a 3:1 mixture of methanol:acetic acid. Slides were stained with Wright's stain, and breaks and radial formation was assessed by counting the number of breaks and radials in a representative number of cells.

[2] = system: SV40-transformed OV-HR2 ovarian epithelial cells; assay: MMC/DEB-induced radial formation, SV40-transformed OV-HR2 cells with and without FANCD2 complementation (FIG. 4B); settings: 40 ng/ml MMC or 200 ng/mL DEB, 48 hours, 50 metaphases
Procedure: as §1, §2

[3] = system: peripheral blood mono-lymphocytes (PBML); assay: MMC/DEB-induced chromosomal breakage and radial formation in PHA-stimulated peripheral blood lymphocytes;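 further: 40 ng/mL MMC and 200 ng/mL DEB for 48 hours at 37 °C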
Procedure: Peripheral blood was obtained from all subjects.
as §2

[4] = system: ovarian surface epithelium (OSE) cells; assay: MMC/DEB-induced chromosomal breakage and radial formation in primary ovarian epithelial cell cultures; settings: 40 ng/ml MMC or 200 ng/ml DEB, 48 hours
Procedure: as §1, §2

[5] = OV-CA4, FANCD2-complemented (retroviral FANCD2 cDNA)
[6] = OV-CA4, FANCD2-deficient (before FANCD2 expression)
[7] = OV-HR2, FANCD2-complemented (retroviral FANCD2 cDNA)
[8] = OV-HR2, FANCD2-deficient (before FANCD2 expression)
[9] = lymphocytes of case OV-CA 1 (carcinoma)
[10] = lymphocytes of case OV-CA 2 (carcinoma)
[11] = lymphocytes of case OV-CA 3 (carcinoma)
[12] = lymphocytes of case OV-CA 4 (carcinoma)
[13] = lymphocytes of case OV-CA 5 (carcinoma)
[14] = lymphocytes of case OV-CA 6 (carcinoma)
[15] = lymphocytes of case OV-CA 7 (carcinoma)
[16] = lymphocytes of case OV-CA 8 (carcinoma)
[17] = lymphocytes of case OV-HR 1 (high-risk)
[18] = lymphocytes of case OV-HR 2 (high-risk)
[19] = lymphocytes of case OV-HR 3 (high-risk)
[20] = lymphocytes of case OV-HR 4 L (high-risk)
[21] = lymphocytes of case OV-HR 5 L (high-risk)
[22] = lymphocytes of case OV-HR 5 R (high-risk)
[23] = lymphocytes of case OV-NL 3 (normal)
[24] = lymphocytes of case OV-NL 9 L (normal)
[25] = lymphocytes of case OV-NL 9 R (normal)

C1OC1C1CO1 (stereo not shown) [DEB, Diepoxybutane]
fraction of MMC- and DEB-exposed cells with radial forms [1, 5]: 20%
fraction of MMC- and DEB-exposed cells with radial forms [1, 6]: 48%
fraction of MMC- and DEB-exposed cells with radial forms [2, 7]: 10%
fraction of MMC- and DEB-exposed cells with radial forms [2, 8]: 30%
Radials (%) PBML MMC/DEB [3, 9]: 0%
Radials (%) PBML MMC/DEB [3, 10]: 0%
Radials (%) PBML MMC/DEB [3, 11]: 1/1%
Radials (%) PBML MMC/DEB [3, 12]: 2%
Radials (%) PBML MMC/DEB [3, 13]: 0%
Radials (%) PBML MMC/DEB [3, 14]: 1/1%
Radials (%) PBML MMC/DEB [3, 15]: 1%
Radials (%) PBML MMC/DEB [3, 16]: 1%
Radials (%) PBML MMC/DEB [3, 17]: 0/0%
Radials (%) PBML MMC/DEB [3, 18]: 0/0%
Radials (%) PBML MMC/DEB [3, 19]: 0%
Radials (%) PBML MMC/DEB [3, 20]: 0/0%
Radials (%) PBML MMC/DEB [3, 21]: 1%
Radials (%) PBML MMC/DEB [3, 22]: 0/0%
Radials (%) PBML MMC/DEB [3, 23]: 0/0%
Radials (%) PBML MMC/DEB [3, 24]: 0/0%
Radials (%) PBML MMC/DEB [3, 25]: 0/0%
Radials (%) OSE MMC/DEB ([4]; case OV-CA 1 (carcinoma)): 16%
Radials (%) OSE MMC/DEB ([4]; case OV-CA 2 (carcinoma)): 10%
Radials (%) OSE MMC/DEB ([4]; case OV-CA 3 (carcinoma)): 14%
Radials (%) OSE MMC/DEB ([4]; case OV-CA 4 (carcinoma)): 48%
Radials (%) OSE MMC/DEB ([4]; case OV-CA 5 (carcinoma)): 2%
Radials (%) OSE MMC/DEB ([4]; case OV-HR 1 (high-risk)): 14%
Radials (%) OSE MMC/DEB ([4]; case OV-HR 2 (high-risk)): 64%
Radials (%) OSE MMC/DEB ([4]; case OV-HR 3 (high-risk)): 55%
Radials (%) OSE MMC/DEB ([4]; case OV-HR 4 L (high-risk)): 50%
Radials (%) OSE MMC/DEB ([4]; case OV-HR 5 L (high-risk)): 20%
Radials (%) OSE MMC/DEB ([4]; case OV-HR 5 R (high-risk)): 12%
Radials (%) OSE MMC/DEB ([4]; case OV-NL 1 (normal)): 0/0%
Radials (%) OSE MMC/DEB ([4]; case OV-NL 2 (normal)): 0/0%
Radials (%) OSE MMC/DEB ([4]; case OV-NL 3 (normal)): 0%
Radials (%) OSE MMC/DEB ([4]; case OV-NL 4 (normal)): 1%
Radials (%) OSE MMC/DEB ([4]; case OV-NL 5 (normal)): 1/1%
Radials (%) OSE MMC/DEB ([4]; case OV-NL 6 L (normal)): 0/0%
Radials (%) OSE MMC/DEB ([4]; case OV-NL 6 R (normal)): 0/0%
Radials (%) OSE MMC/DEB ([4]; case OV-NL 7 (normal)): 2%
Radials (%) OSE MMC/DEB ([4]; case OV-NL 8 (normal)): 3/3%
Radials (%) OSE MMC/DEB ([4]; case OV-NL 9 L (normal)): 0/0%
Radials (%) OSE MMC/DEB ([4]; case OV-NL 9 R (normal)): 0/0%

CO[C@@]12[C@H](COC(N)=O)C3=C(C(=O)C(C)=C(N)C3=O)N1C[C@@H]1N[C@@H]12 [MMC, Mitomycin C]
fraction of MMC- and DEB-exposed cells with radial forms [1, 5]: 56%
fraction of MMC- and DEB-exposed cells with radial forms [1, 6]: 70%
fraction of MMC- and DEB-exposed cells with radial forms [2, 7]: 32%
fraction of MMC- and DEB-exposed cells with radial forms [2, 8]: 60%
Radials (%) PBML MMC/DEB [3, 9]: 2%
Radials (%) PBML MMC/DEB [3, 10]: 1%
Radials (%) PBML MMC/DEB [3, 11]: 1/1%
Radials (%) PBML MMC/DEB [3, 12]: 4%
Radials (%) PBML MMC/DEB [3, 13]: 2%
Radials (%) PBML MMC/DEB [3, 14]: 1/1%
Radials (%) PBML MMC/DEB [3, 15]: 0%
Radials (%) PBML MMC/DEB [3, 16]: 3%
Radials (%) PBML MMC/DEB [3, 17]: 0/0%
Radials (%) PBML MMC/DEB [3, 18]: 0/0%
Radials (%) PBML MMC/DEB [3, 19]: 1%
Radials (%) PBML MMC/DEB [3, 20]: 0/0%
Radials (%) PBML MMC/DEB [3, 21]: 0%
Radials (%) PBML MMC/DEB [3, 22]: 0/0%
Radials (%) PBML MMC/DEB [3, 23]: 0/0%
Radials (%) PBML MMC/DEB ([3]; lymphocytes of case OV-NL 6 L (normal)): 0/N.D. %
Radials (%) PBML MMC/DEB ([3]; lymphocytes of case OV-NL 6 R (normal)): 0/N.D. %
Radials (%) PBML MMC/DEB [3, 24]: 0/0%
Radials (%) PBML MMC/DEB [3, 25]: 0/0%
Radials (%) OSE MMC/DEB ([4]; case OV-CA 1 (carcinoma)): 14%
Radials (%) OSE MMC/DEB ([4]; case OV-CA 2 (carcinoma)): 12%
Radials (%) OSE MMC/DEB ([4]; case OV-CA 3 (carcinoma)): 16%
Radials (%) OSE MMC/DEB ([4]; case OV-CA 4 (carcinoma)): 70%
Radials (%) OSE MMC/DEB ([4]; case OV-CA 5 (carcinoma)): 12%
Radials (%) OSE MMC/DEB ([4]; case OV-CA 6 (carcinoma)): 66/N.D. %
Radials (%) OSE MMC/DEB ([4]; case OV-CA 7 (carcinoma)): 0/N.D. %
Radials (%) OSE MMC/DEB ([4]; case OV-CA 8 (carcinoma)): 33/N.D. %
Radials (%) OSE MMC/DEB ([4]; case OV-HR 1 (high-risk)): 10%
Radials (%) OSE MMC/DEB ([4]; case OV-HR 2 (high-risk)): 50%
Radials (%) OSE MMC/DEB ([4]; case OV-HR 3 (high-risk)): 64%
Radials (%) OSE MMC/DEB ([4]; case OV-HR 4 L (high-risk)): 66%
Radials (%) OSE MMC/DEB ([4]; case OV-HR 5 L (high-risk)): 47%
Radials (%) OSE MMC/DEB ([4]; case OV-HR 5 R (high-risk)): 30%
Radials (%) OSE MMC/DEB ([4]; case OV-NL 1 (normal)): 0/0%
Radials (%) OSE MMC/DEB ([4]; case OV-NL 2 (normal)): 0/0%
Radials (%) OSE MMC/DEB ([4]; case OV-NL 3 (normal)): 2%
Radials (%) OSE MMC/DEB ([4]; case OV-NL 4 (normal)): 4%
Radials (%) OSE MMC/DEB ([4]; case OV-NL 5 (normal)): 1/1%
Radials (%) OSE MMC/DEB ([4]; case OV-NL 6 L (normal)): 0/0%
Radials (%) OSE MMC/DEB ([4]; case OV-NL 6 R (normal)): 0/0%
Radials (%) OSE MMC/DEB ([4]; case OV-NL 7 (normal)): 1%
Radials (%) OSE MMC/DEB ([4]; case OV-NL 8 (normal)): 3/3%
Radials (%) OSE MMC/DEB ([4]; case OV-NL 9 L (normal)): 0/0%
Radials (%) OSE MMC/DEB ([4]; case OV-NL 9 R (normal)): 0/0%

Reference: patent US20090305266A1, “TEST FOR OVARIAN CANCER BY DETECTING ABNORMALITY IN FANCD2 PATHWAY” (priority 2006, published 2009)
